In ChEMBL document CHEMBL1124653, “11 beta-nitrate estrane analogues: potent estrogens” (1989):

Biological target: Estrogen receptor (Rattus norvegicus) (UniProt P06211+Q62986)
Assay: Estrogenic potency in rats by subcutaneous dose relative to estradiol
Type: functional

Row | Compound | Relative potency
1 | CC(=O)Oc1ccc2c(c1)C[C@@H](C)[C@@H]1[C@@H]2[C@@H](O[N+](=O)[O-])C[C@]2(C)C(=O)CC[C@@H]12 (stereo in doubt; 2b) | 34
2 | CC(=O)Oc1ccc2c(c1)CC[C@H]1[C@@H]3CCC(=O)[C@@]3(C)C[C@H](O[N+](=O)[O-])[C@]21O | 4
3 | CC(=O)Oc1ccc2c(c1)C[C@@H](C)[C@@H]1[C@@H]2[C@@H](O[N+](=O)[O-])C[C@]2(C)C(=O)CC[C@@H]12 (stereo in doubt; 3b) | 7470
